Experimental findings from patent publication US20170049843A1, “Hepatocyte Growth Factor Mimics as Therapeutic Agents” (WASHINGTON STATE UNIVERSITY, priority 2011, published 2017) are described below.

The test system of data set [1] is MDCK cells. Description: Inhibition of HGF-dependent scattering in MDCK cells. As to conditions: HGF 20 ng/ml, 48 h. It counts as cell-based, canine. The procedure: (§1) MDCK cells were grown to 100% confluency on the coverslips in six-well plates and washed twice with PBS. The confluent coverslips were then aseptically transferred to new six well plates containing 900 μl serum free DMEM. Norleual, Hinge peptide, and/or HGF (20 ng/ml) were added to appropriate wells. Control wells received PBS vehicle. Plates were incubated at 37° C. with 5% CO2 for 48 hours. Media was removed and cells were fixed with methanol. Cells were stained with Diff-Quik Wright-Giemsa (Dade-Behring, Newark, Del.) and digital images were taken. Coverslips were removed with forceps and more digital images were captured. Pixel quantification of images was achieved using Image J and statistics were performed using Prism 5 and InStat v.3.05.
as §1, with “h.” for “hours.”, “v.3.05 (GraphPad; San Diego, Calif.).” for “v.3.05.”

Data set [2] in a line: Microsomal metabolism, rat liver microsomes. It counts as in vitro ADME. As to conditions: over 90 min, data not shown.
For the next data set, the system named is Met. Kind of data set: Inhibition of HGF-dependent Met phosphorylation in HEK293 cells. It counts as cell-based, human. To be noted: 10 min. The procedure: HEK293 cells were seeded in 6 well tissue culture plates and grown to 95% confluency in DMEM containing 10% FBS. The cells were serum deprived for 24 h prior to the treatment to reduce the basal levels of phospho-Met. Following serum starvation, cocktails comprised of vehicle and HGF with/without 6-AH analogs were prepared and pre-incubated for 30 min at room temperature. The cocktail was then added to the cells for 10 min to stimulate the Met receptor and downstream proteins. Cells were harvested using RIPA lysis buffer (Millipore; Billerica, Mass.) fortified with phosphatase inhibitor cocktails 1 and 2 (Sigma-Aldrich; St. Louis, Mo.). The lysate was clarified by centrifugation at 15,000 n×g for 15 min, protein concentrations were determined using the BCA total protein assay (Pierce), and then appropriate volumes of the lysates were diluted with 2× reducing Laemmli buffer and heated for ten min at 95° C. Samples containing identical amounts of protein were resolved using SDS-PAGE (Criterion, BioRad Laboratories), transferred to nitrocellulose, and blocked in Tris-buffered saline (TBS) containing 5% milk for 1 h at room temperature. The phospho-Met antibody were added to the blocking buffer at a final concentration of 1:1000 and incubated at 4° C. overnight with gentle agitation. The membranes were then washed several times with water and TBS ([…]), a 1:5000 dilution of horseradish-peroxidase conjugated goat anti-rabbit antiserum was added, and the membranes further incubated for 1 h at room temperature. Proteins were visualized using the Supersignal West Pico Chemiluminescent Substrate system (Pierce, Fenton, Mo.) and molecular weights determined by comparison to protein ladders (BenchMark, Invitrogen, and Kaleidoscope, BioRad). Film images were digitized and analyzed using a UVP phosphoimager.

In data set [3] the target is T1, HGF (Homo sapiens, UniProt P14210).
T1 construct: purchased R&D Systems (Minneapolis, Minn.)
Description: HGF binding, competition with 3H-Hinge. How it is done: The binding of 6-AH analogs to HGF was assessed by competition using a soluble binding assay. 250 μl of PBS containing human HGF (1.25 ng) were incubated with ^3H-Hinge, the central dimerization domain of HGF, in the presence of varying concentrations of 6-AH analogs between 10^−13 M to 10^−7M (half-log dilutions) for 40 min at 37° C. The incubates were then spun through Bio-Gel P6 spin columns (400 μl packed volume) for 1 min to separate free and bound ^3H-Hinge and the eluent was collected. Five milliliters of scintillation fluid was added to the eluent, which contained the HGF bound ^3H-Hinge, and was then counted using scintillation counter. Total disintegrations per minute of bound ^3H-Hinge were calculated based on machine counting efficiency. The Ki values for the binding of the peptides were determined using the Prism 5. Competition binding curves were performed in triplicate.

The nature of another data set: in vivo. As to conditions: male, Sprague-Dawley, rat, iv, 24 mg/kg.
In data set [4] the target is T1, HGF. Description: HGF dimerization. It counts as biochemical. As to conditions: analog at 10^−10M, 30 minute incubation with heparin. The procedure:
HGF dimerization was assessed using PAGE followed by silver staining (Kawas et al., 2011). Human HGF at a concentration of 0.08 ng/μl with or without 6-AH analogs was incubated with heparin at a final concentration of 5 μg/ml. Loading buffer was then added to each sample and the mixture separated by native PAGE using gradient Criterion XT precast gels (4-12% Bis-Tris; Biorad Laboratories, Hercules, Calif.). Next the gel was silver stained for the detection of the HGF monomers and dimers. Bands were quantitated from digital images using a UVP phosphoimager (Upland, Calif.).

Data set [5] deals with MDCK cells. Kind of data set: HGF-dependent MDCK cell proliferation (MTT). To be noted: 10^−10 M, 4 days, HGF 10 ng/ml. It counts as cell-based, canine. The procedure:
5000 MDCK cells were seeded into the wells of a 96 well plates in 10% FBS DMEM. To induce cellular quiescence, the cells were serum deprived for 24 h prior to initiating the treatments. Following serum starvation, 10 ng/ml HGF alone and with various concentrations of 6-AH analogs or PBS vehicle were added to the media. The cells were allowed to grow under these conditions for 4 days with a daily addition of 6-AH analogs. On the fourth day, 1 mg/ml of 1-(4, 5-Dimethylthiazol-2-yl) 3, 5-diphenylformazan reagent (MTT, Sigma-Aldrich) prepared in PBS was added to the cells and incubated for 4 h. Dimethyl sulfoxide diluted in a 0.01M glycine buffer was added to solubilize the cell membranes and the absorbance of reduced MTT in the buffer was quantitated at 590 nm using a plate reader (Biotek Synergy 2, Winooski, Vt.). HGF-dependent proliferation was determined by subtracting the basal proliferation (in the absence of HGF) from total proliferation rates in groups containing HGF.

Data set [6] concerns B16-F10 murine melanoma cells. Description: B16-F10 melanoma lung colony formation. It counts as in vivo, mouse. As to conditions: C57BL/6 mice, daily IP 10 μg/kg/day or 100 μg/kg/day, 14 days. The procedure: Six to eight month old C57BL/6 mice were injected with 400,000 B16-F10 cells in 200 μl PBS by tail vein injection and subsequently received daily intraperitoneal injections of either D-Nle-X-Cys-NH—(CH2)5—CONH2 (10 μg/kg and 100 μg/kg) or a PBS vehicle control. Two weeks later, mice were anesthetized and lungs were perfused with PBS and removed. Photos were taken and lungs were solubilized in 1% Triton x-100, 20 mM Tris, 0.15 M NaCl, 2 mM EDTA, and 0.02% sodium azide. Samples were disrupted by sonication (Mixonix, Farmingdale, N.Y.) and spun. The supernatant was transferred to a 96 well plate and melanin absorbance at 410 nm was measured using a plate reader.

“Also recorded” adds a separate entry of the source. Where a SMILES comes first, the peptide text is derived from it. [ ]: non-standard residue; d: D form. dNle = CCCC[C@@H](N)C(=O)O; Ahx = NCCCCCC(=O)O

T1 sequence (P14210 32-728): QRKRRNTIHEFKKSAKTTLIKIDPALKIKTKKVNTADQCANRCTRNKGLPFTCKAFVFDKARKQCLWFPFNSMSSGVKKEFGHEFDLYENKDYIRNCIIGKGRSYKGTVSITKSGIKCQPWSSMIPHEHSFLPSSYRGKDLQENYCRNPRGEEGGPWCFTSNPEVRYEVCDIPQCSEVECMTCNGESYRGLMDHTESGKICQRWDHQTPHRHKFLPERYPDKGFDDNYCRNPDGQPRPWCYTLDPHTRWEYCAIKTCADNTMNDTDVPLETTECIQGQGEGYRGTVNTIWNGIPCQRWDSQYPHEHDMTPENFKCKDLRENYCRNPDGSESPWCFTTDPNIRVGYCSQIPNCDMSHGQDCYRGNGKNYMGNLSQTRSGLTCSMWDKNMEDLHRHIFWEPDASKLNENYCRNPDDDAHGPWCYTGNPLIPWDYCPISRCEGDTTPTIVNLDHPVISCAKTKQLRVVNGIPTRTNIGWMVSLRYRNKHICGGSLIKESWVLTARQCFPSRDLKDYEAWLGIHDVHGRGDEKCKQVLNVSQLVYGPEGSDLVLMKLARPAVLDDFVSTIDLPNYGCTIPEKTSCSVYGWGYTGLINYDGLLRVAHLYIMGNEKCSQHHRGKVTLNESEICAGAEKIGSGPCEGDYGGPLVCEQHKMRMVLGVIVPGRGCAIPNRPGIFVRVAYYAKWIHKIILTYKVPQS
Description for in vivo: Male Sprague-Dawley rats (250+g) were allowed food (Harlan Teklad rodent diet) and water ad libitum in our AAALAC certified animal facility. Rats were housed in temperature-controlled rooms with a 12 h light/dark cycle. The right jugular veins of the rats were catheterized with sterile polyurethane Hydrocoat™ catheters (Access Technologies, Skokie, Ill., USA) under ketamine (Fort Dodge Animal Health, Fort Dodge, Iowa, USA) and isoflurane (Vet One™, MWI, Meridian, Id., USA) anesthesia. The catheters were exteriorized through the dorsal skin. The catheters were flushed with heparinized saline before and after blood sample collection and filled with heparin-glycerol locking solution (6 mL glycerol, 3 mL saline, 0.5 mL gentamycin (100 mg/mL), 0.5 mL heparin (10,000 u/mL)) when not used for more than 8 h. The animals were allowed to recover from surgery for several days before use in any experiment, and were fasted overnight prior to the pharmacokinetic experiment. […]
Pharmacokinetic analysis was performed using data from individual rats. The mean and standard deviation (SD) were calculated for the group. Non-compartmental pharmacokinetic parameters were calculated from serum drug concentration-time profiles by use of WinNonlin® software (Pharsight, Mountain View, Calif., USA).

On to `CCCC[C@@H](N)C(=O)N[C@@H](Cc1ccc(O)cc1)C(=O)N[C@H](C(=O)NCCCCCC(N)=O)[C@@H](C)CC` (H-[dNle]YI[Ahx]-NH2), for which the “inhibition of HGF-dependent scattering in MDCK cells” value with MDCK cells [1] is given as “different from the HGF alone group but not different from the control group”. The “Phase I metabolism in rat liver microsomes” value in data set [2] is listed as “no detectable metabolism over 90 min”. Further, the “inhibition of HGF-dependent Met phosphorylation” value with Met is listed as “able to block Met auto-phosphorylation”. Moreover, on HGF [3], the “affinity for HGF (in words)” value was “bind HGF with high affinity”. Further, in the data set “in vivo”, the C0 worked out at 68.2 ± 32.2 µg/mL. For the same molecule, the “inhibition of HGF dimerization” value against HGF [4] is listed as “completely block HGF dimer formation”; at HGF [4] (listed as Tyr) it was “statistically different than the HGF treated group”. Besides, the “inhibition of HGF-dependent MDCK cell proliferation” value with MDCK cells [5] was “marked inhibitory activity”.
On to `CCCC[C@@H](N)C(=O)N[C@@H](CS)C(=O)N[C@H](C(=O)NCCCCCC(N)=O)[C@@H](C)CC` [D-Nle-Cys-Ile-NH—(CH2)5—CONH2] (H-[dNle]CI[Ahx]-NH2), for which the “inhibition of HGF-dependent scattering in MDCK cells” value in the data set with MDCK cells [1] was “different from the HGF alone group but not different from the control group”. In the data set on Met, the “inhibition of HGF-dependent Met phosphorylation” value was “able to block Met auto-phosphorylation”. Besides, the “affinity for HGF (in words)” value at HGF [3] was “bind HGF with high affinity”. Moreover, in data set [6], the “pulmonary colonization by B16-F10 melanoma cells” value is recorded as “suppressed pulmonary colonization; also recorded: radically prevented lung colonization; also recorded: obvious reduction in melanoma colonies”. Also, the “inhibition of HGF dimerization” value against HGF [4] is given as “completely block HGF dimer formation”; at HGF [4] (listed as Cys), “statistically different than the HGF treated group”. Besides, in the data set with MDCK cells [5], the “inhibition of HGF-dependent MDCK cell proliferation” value is “marked inhibitory activity”.
